# Assay results reported in patent US7060477B2, “Epoxide hydrolases of aspergillus origin” (Centre National de la Recherche Scientifique, priority 1999, dated 2006).
# Like-named read-outs stand apart in the source and are kept apart here.
# Legend:
# [1] = system: epoxide hydrolase from Aspergillus niger; assay: Effect of selective reagents and co-solvents on epoxide hydrolase activity (pNSO as substrate, diol formed by HPLC); assay type: biochemical; conditions: for effect of co-solvent on the activity of epoxide hydrolase (opening of the epoxide): organic co-solvent for dissolving the substrate
# Experimental: (§1) Add 50 μL of the preparation containing the enzyme to 410 μL of 0.1 M sodium phosphate buffer pH 7.0 (buffer B) and pre-incubate the mixture at 35° C. for 2 min. Then add 40 μL of a 50 mM solution of racemic pNSO in DMF (final pNSO concentration: 4 mM).
# (§2) After 10 min of incubation, stop the reaction by adding 1 mL of dichloromethane. Stir the mixture vigorously so as to extract both the substrate and the diol produced. The quantity of diol formed is determined after separation on a column of silica by HPLC (high-pressure liquid chromatography) (Waters Associates, USA) as described previously (Nellaiah et al. 1996).
# One unit of epoxide hydrolase represents the quantity of enzyme that catalyses the formation of one μmol of diol per minute in the above conditions. After incubation with raw extracts, the quantity of diol formed increases linearly with time for at least 30 min, and the reaction rate is proportional to the concentration of the enzyme in the range of 0.01 to 1.2 units (Nellaiah et al., 1996).
# [2] = Hydrolysis of pNSO by the purified EH: pH/temperature profile, enantioselectivity, regioselectivity; assay type: biochemical, Aspergillus niger; set-up: activation energy: unit not given here
# Experimental: as §1, §2
# The incubations with H2[^18O] are carried out in 1 mL flasks containing 180 μL of H2[^18O] buffer B, 20 μL of the purified epoxide hydrolase and 20 μL of substrate (50 mM in acetonitrile). After 1.5 h of incubation at 25° C. with magnetic stirring (500 rpm) the substrate that remains and the product formed are extracted with 2 mL of dichloromethane. The diol is purified by analytical chromatography on silica (eluent: diethylether). 2 μL of samples are analysed by gas chromatography/mass spectrometry (GC/MS). The diol that remains is converted to the corresponding acetonide by reaction with […] in the presence of p-toluene sulphonic acid. The acetonide is analysed by GC/MS as already described by Audier et al., 1968.
# Reaction in a total volume of 5 mL is carried out at 25° C., with a substrate with a concentration of 4.3 mM with DMSO (20 vol.%) as co-solvent in a 0.1 M sodium phosphate buffer pH 8.0.
# The reaction is started by adding 13 U/L of the purified enzyme. Samples are taken every 30 minutes for quantification of the concentrations of the substrate and of product by HPLC using a reversed-phase column (Nellaiah et al., 1996) and for quantification of the enantiomeric excess of the epoxide and of the diol by gas-phase chromatography (Nellaiah et al., 1996).
# [3] = Enzymatic activity of recombinant epoxide hydrolase and mutants (conversion of R enantiomer of para-nitrostyrene oxide to diol); assay type: biochemical, Aspergillus niger; conditions: 4-nitro-styrene oxide hydrolysed
# Experimental: in the Ncol site that contains the starting codon of the pGEF+ vector in the context adapted to a ribosome binding site, upstream of the promoter of the RNA polymerase T7. The resulting plasmid is called pGEF II hereinafter. The PCR fragment AfIII/Eco RI of the EH of Aspergillus is ligated in the Ncol/Eco RI site of pGEF II to produce the pGEF Asp EH″ expression construction. The E. coli strain BL21 (DE 3) (Novagen) is transformed with pGEF Asp EH and put in the LB medium at 30° C. In late exponential phase, induction of expression of the recombinant protein is effected by adding isopropyl-β-thiogalactoside (100 μM). After two hours, the bacteria are collected by centrifugation, resuspended in 0.02 volumes of culture of the STE buffer (Tris-HCl, 10 mM, sodium chloride 100 mM, ethylenediamine tetraacetic acid 1 mM, pH 7.4) and stored at −70° C. Enzymatic activity is determined by converting the R enantiomer of para-nitrostyrene oxide to the corresponding diol. The reaction is carried out at a substrate concentration of 880 μM in 500 μL STE at 37° C. for 30 min, in the presence of 10 μL of acetonitrile which is used as solvent of para-nitrostyrene oxide. […]
# The conversion substrate is quantified by adding 400 μL of supernatant to 800 μL of water and reading the optical density at 277 nm, with the molar extinction coefficient of the product being 9.1×10^3 M^−1 cm^−1. […]
# [4] = Isoelectric point by electrofocusing; assay type: physicochemical, Aspergillus niger; conditions: pH gradient 3 to 9, silver nitrate staining
# Experimental: SDS-PAGE electrophoresis is carried out on a plate with thickness of 1 mm containing a resolving gel (10% of acrylamide) and a concentrating gel (4% of acrylamide) at pH 8.8 in the presence of 0.1% of sodium dodecyl sulphate (SDS) (Laemmli, 1970). The samples are dissolved in a Tris-HCl buffer (62.5 mM, […]) containing 1% (w/v) of SDS, 10% (v/v) of glycerol and 2% (v/v) of β-mercaptoethanol, and are heated at 100° C. for 2 minutes. The proteins are stained with 0.1% (w/v) of Coomassie blue. Migrations on non-denaturing PAGE gels were effected in the same way except that no β-mercaptoethanol was added to the resolving buffer, and that the samples were not heated. Electrofocusing was carried out with a pH gradient of 3–9 by means of the Pharmacia LKB “Phastsystem” system and standard Pharmacia procedures. The proteins were stained with silver nitrate.
# [5] = cited from earlier work
# [6] = purified EH of Aspergillus niger, pNSO substrate
molecule,measurement,setting,value
O=C([O-])c1cc[c]([Hg][OH])cc1 [4-hydroxy-mercuribenzoate],effect of selective reagent on the activity of the enzyme,[1]; [6],strong inactivation
CN(C)C=O [DMF],effect of co-solvent on the activity of epoxide hydrolase (opening of the epoxide),[1]; pNSO substrate,strongest activities
O=C(O)CN(CCN(CC(=O)O)CC(=O)O)CC(=O)O [EDTA],effect of selective reagent on the activity of the enzyme,[1],no effect
[Cl][Hg][Cl] [HgCl2],effect of selective reagent on the activity of the enzyme,[1]; [6],strong inactivation
C1CCOC1 [THF],effect of co-solvent on the activity of epoxide hydrolase (opening of the epoxide),[1]; pNSO substrate,low activity
CC(C)=O [acetone],effect of co-solvent on the activity of epoxide hydrolase (opening of the epoxide),[1]; pNSO substrate,strongest activities
N[C@@H](CS)C(=O)O [cysteine],effect of selective reagent on the activity of the enzyme,[1]; [6],positive effect
OO [hydrogen peroxide],effect of selective reagent on the activity of the enzyme,[1]; [6],strongly inhibit
NC(=O)CI [iodoacetamide],effect of selective reagent on the activity of the enzyme,[1]; [6],strong inactivation
O=C(OO)c1cccc(Cl)c1 [meta-chloroperbenzoic acid],effect of selective reagent on the activity of the enzyme,[1]; [6],strongly inhibit
OCCS [β-mercaptoethanol],effect of selective reagent on the activity of the enzyme,[1]; [6],positive effect
phenylmethane sulphonyl chloride [PMSF],effect of selective reagent on the activity of the enzyme,[1]; [6],no effect
"EH from Aspergillus niger: fungal epoxide hydrolase represented by SEQ ID NO: 2, purified from Aspergillus niger LCP521 or recombinant in E. coli (protein, Aspergillus niger) MSAPFAKFPSSASISPNPFTVSIPDEQLDDLKTLVRLSKIAPPTYESLQADGRFGITSEWLTTMREKWLSEFDWRPFEARLNSFPQFTTEIEGLTIHFAALFSEREDAVPIALLHGWPGSFVEFYPILQLFREEYTPETLPFHLVVPSLPGYTFSSGPPLDKDFGLMDNARVVDQLMKDLGFGSGYIIQGGDIGSFVGRLLGVGFDACKAVHLNLCAMRAPPEGPSIESLSAAEKEGIARMEKFMTDGLAYAMEHSTRPSTIGHVLSSSPIALLAWIGEKYLQWVDKPLPSETILEMVSLYWLTESFPRAIHTYRETTPTASAPNGATMLQKELYIHKPFGFSFFPKDLCPVPRSWIATTGNLVFFRDHAEGGHFAALERPRELKTDLTAFVEQVWQK",pH of maximum activity,[2],7 pH
same,temperature of maximum activity,[2],40 °C
same,regioselectivity of the reaction,"[2]; for the 2 carbon, pNSO",97%
same,activation energy,[2]; from 2 to 40° C.,27
same,ratio of the specific constant (kcat/Km): initial rate of hydrolysis of (R) enantiomer versus (S) enantiomer,[2]; starting from racemic pNSO,55 times
same,specific activity,[3],100 μmol per minute and milligram
same,isoelectric point,[4],4.5
"rat microsomal epoxide hydrolase (mEH): rat microsomal epoxide hydrolase, literature comparison enzyme (protein, UniProt P07687 1-455, looked up) Epoxide hydrolase 1: MWLELVLASLLGFVIYWFVSRDKEETLPLGDGWWGPGSKPSAKEDESIRPFKVETSDEEIKDLHQRIDRFRASPPLEGSRFHYGFNSNYMKKVVSYWRNEFDWRKQVEILNQYPHFKTKIEGLDIHFIHVKPPQLPSGRTPKPLLMVHGWPGSFYEFYKIIPLLTDPKSHGLSDEHVFEVICPSIPGYGYSEASSKKGLNSVATARIFYKLMTRLGFQKFYIQGGDWGSLICTNMAQMVPNHVKGLHLNMAFISRSFYTMTPLLGQRFGRFLGYTEKDIELLYPYKEKVFYSIMRESGYLHIQATKPDTVGCALNDSPVGLAAYILEKFSTWTKSEYRELEDGGLERKFSLDDLLVNIMIYWTTGTIVSSQRYYKENLGQGIMVHKHEGMKVFVPTGFSAFPSELLHAPEKWVKVKYPKLISYSYMERGGHFAAFEEPKLLAQDIRKFVSLAELQ",conversion number increased by a factor,[5]; on replacing Glu^404 of the charge relay system with aspartic acid,30
same,specific activity,[5]; styrene oxide and benzo[α]pyrene oxide,about 500 nmol converted per minute and milligram of pure enzyme
